# Source: patent US20100286079A1, “COMPOSITION COMPRISING COVALENT CONJUGATES OF CHITOSAN AND AN ACIDIC DRUG AND PARENTERAL ADMINISTRATION” (priority 2007, published 2010)
# Assays:
# [1] = Solubility in water / aqueous solution; settings: as observed during preparation
# [2] = single 200-mg oral dose, fasting subjects; cited from earlier work
solubility in aqueous medium [1],SMILES,time of peak plasma levels after administration [2]
insoluble,CC(=O)O.CC(C)Cc1ccc(C(C)C(=O)O)cc1 (centres unmarked) [Ibuprofen ethanoate],
,CC(C)Cc1ccc(C(C)C(=O)O)cc1 (centres unmarked) [Ibuprofen],about 1 hr
